Here are results for ten molecules from paper PMC7046902, “Daphnane Diterpenoids from Trigonostemon lii and Inhibition Activities Against HIV-1” (Natural Products and Bioprospecting, 2020).

Converted amounts (≈) assume the structure as drawn. Bounds are passed on as bounds.

Series [1] can be described thus: in vitro. The format is cell-based. To be noted: human; C8166 cells, MTT, 3 days; read-out: cytotoxicity CC50. The protocol:
(§1) Cellular toxicity of compounds was assessed by MTT method. Briefly, cells were seeded on a microtiter plate in the absence or presence of various concentrations of compounds in triplicate and incubated at 37 °C in a humid atmosphere of 5% CO2 for 3 days. Twenty microliters of MTT reagent (5 mg/mL in PBS) was added to each well, then incubated at 37 °C for 4 h, 100 μL of 50% DMF-20% SDS was added. After the formazan was dissolved completely, the plates were read on a Bio-Tek ELx 800 ELISA reader at 595 nm/630 nm (A595/630). The cytotoxic concentration that caused the reduction of viable cells by 50% (CC50) was calculated from dose–response curve.
as §1, with “b. MTT-based cytotoxicity assay. Cellular” for “Cellular”, “4h,” for “4 h,”, “595nm/630” for “595 nm/630”, “dose-response curve ^[2].” for “dose–response curve.”

In series [2] the test system is HIV-1IIIB. In words: microbe, parasite or virus in culture. To be noted: for EC50: Human immunodeficiency virus 1, 72 h, read-out: anti-HIV-1 EC50 (syncytia formation induced by HIV-1IIIB). Format: cell-based. Here is the method:
(§2) In the presence of 100 μL various concentrations of compounds, C8166 cells (4 × 10^5/mL) were infected with virus (HIV-1IIIB) at a multiplicity of infection (M.O.I) of 0.06. The final volume per well was 200 μL. Control assays were performed without the testing compounds in HIV-1IIIB infected and uninfected cultures. AZT was included as positive control. After 3 days of culture, the cytopathic effect (CPE) was measured by counting the number of syncytia (multinucleated giant cell). Percentage inhibition of syncytia formation was calculated and 50% effective concentration (EC50) was calculated.
as §2, with “c. Syncytia assay. In” for “In”, “(4×10^5/mL)” for “(4 × 10^5/mL)”, “calculated ^[3].” for “calculated.”

In series [3] the test system is pNL4-3gp41(36G)V38E,N42S. The format is cell-based, HIV-1. To be noted: T20-resistant strain pNL4-3gp41(36G)V38E,N42S in C8166 cells.
Series [4] concerns pNL4-3gp41(36G)V38A,N42T. The format is cell-based, HIV-1. Conditions: T20-resistant strain pNL4-3gp41(36G)V38A,N42T in C8166 cells.
Series [5] deals with T1, purified recombinant HIV-1 RT (Human immunodeficiency virus type 1 group M subtype B, UniProt P04585).
T1 construct: purified recombinant HIV-1 RT; purchased Roche
In words: RT (reverse transcriptase) assay, ELISA RT kit. Format: biochemical. Conditions: read-out: EC50, inhibition of recombinant HIV-1 RT activity (converted). Here is the method: HIV-1 RT activity was measured by ELISA RT kit (Roche) using a commercially available kit according to the protocol provided by the manufacturer. Samples were incubated with DIG-labeled-reaction mixture at 37 °C for 15 h. Anti-DIG-POD solution was added afterward followed by substrate ABTS. The absorbance at 405/490 nm (A405/490) was determined in the ELISA reader.
e. RT (reverse transcriptase) assay. HIV-1 RT activity was measured by ELISA RT kit (Roche) using a commercially available kit according to the protocol provided by the manufacturer. Samples were incubated with DIG-labeled-reaction mixture at 37 °C for 15 h. Anti-DIG-POD solution was added afterward followed by substrate ABTS. The absorbance at 405/490 nm (A405/490) was determined in the ELISA reader ^[4].
On the technique in general: ELISA stands for enzyme-linked immunosorbent assay.

The subject of series [6] is fusion of H9/HIV-1IIIB cells with uninfected C8166 cells. In words: cells. To be noted: Human immunodeficiency virus 1, C8166, 6 h, read-out: EC50, inhibition of fusion of H9/HIV-1IIIB cells with uninfected C8166 cells.
Protocol: (§3) C8166 cells (3 × 10^4) co-cultured with 1 × 10^4 virus (HIV-1IIIB) infected H9 cells in the presence or absence of the compound with various concentrations at 37 °C in a humidified atmosphere of 5% CO2. T20 was used as positive control. After 6 h incubation, the number of syncytia was scored under an inverted microscope [18].
(§4) Co-cultivation assay. C8166 cells (3×10^4) co-cultured with 1×10^4 virus (HIV-1IIIB) infected H9 cells in the presence or absence of the compound with various concentrations at 37 °C in a humidified atmosphere of 5% CO2. Dextran sulfate (DS) was used as positive control. After 6 h incubation, the number of syncytia was scored under an inverted microscope ^[3].
Series [7] relates to HIV-1. Conditions: cited from earlier work.
Series [8] has as its system C8166. In words: in vitro. To be noted: C8166 cells, MTT, 3 days. The format is cell-based. Here is the method: as §1
as §1, with “b. MTT-based cytotoxicity assay. Cellular” for “Cellular”, “4h,” for “4 h,”, “595nm/630” for “595 nm/630”, “dose-response curve ^[2].” for “dose–response curve.”

The subject of series [9] is fusion of H9/HIV-1IIIB cells with uninfected C8166 cells. Conditions: 6 h.
Protocol: as §3, §4
Where [10] appears, read: C8166 cells, HIV-1IIIB, M.O.I 0.06, 3 days.

Take `CC1CCCCCCC(C)C(=O)OC2C(=CCl)C=C3C2(O)C(O)C2(CO)OC2C2C4OC5(c6ccccc6)OC(C(C)C32O5)C4(O)C(O)(CO)C1` (stereo not drawn) [Compound 6, Trigocheriolide E]: the 50% cytotoxic concentration (CC50) (usually the concentration giving 50% cytotoxicity) in [1] is 18.3 µg/mL (≈ 24900 nM). In [2] (C8166 cells, HIV-1IIIB), the “selectivity index CC50/EC50” value is listed as 12193.33. Moreover, the EC50 in series [2] (setting [10]) was 0.0015 µg/mL (≈ 2.05 nM); in series [5] it was 261 µM; in series [6], 0.00176 µg/mL (≈ 2.4 nM). The “EC50 (syncytium formation)” value was found to be 0.00374 µg/mL (≈ 5.1 nM) in [3] and 0.00381 µg/mL (≈ 5.2 nM) in [4].
Consider trigonothyrins C, for which the “anti-HIV-1 EC50” value in series [7] is 2.19 µg/mL.
Take `C=C1C=C2C3(O)C1OC(=O)C(C)CCCCCCC(C)CC(O)(CO)C1(O)C4OC5(c6ccccc6)OC1C(C1OC1(CO)C3O)C2(O5)C4C` (stereo not drawn) [Compound 3, Trigonolactone E]: the CC50 in [1] is 17.5 µg/mL (≈ 25000 nM). Moreover, in series [2] (C8166 cells, HIV-1IIIB), the “selectivity index CC50/EC50” value amounted to 29610.17. Besides, the EC50 is 0.00059 µg/mL (≈ 0.844 nM) in series [2] (setting [10]), greater than 429 µM in series [5] and 0.00185 µg/mL (≈ 2.65 nM) in [6]. Moreover, the “EC50 (syncytium formation)” value in series [3] was 0.00443 µg/mL (≈ 6.34 nM).
With `CC1CCCCCCC(C)C(=O)OC2C(=CCl)C=C3C2(O)C(O)C2(CO)OC2C2C4OC5(c6ccccc6)OC(C(C)C32O5)C4(O)C(O)(COC(=O)c2ccccc2O)C1` (stereo not drawn) [Compound 5, Trigocherriolide A], the CC50 in [1] turned out to be 15.5 µg/mL (≈ 18200 nM). Further, in series [2] (C8166 cells, HIV-1IIIB), the “selectivity index CC50/EC50” value turned out to be 5407.67. Moreover, the EC50 in series [2] (setting [10]) is 0.00287 µg/mL (≈ 3.36 nM); in series [5], 313 µM; in [6], 0.00106 µg/mL (≈ 1.24 nM). Also, the “EC50 (syncytium formation)” value in series [3] came to 0.00288 µg/mL (≈ 3.37 nM); in series [4], 0.00343 µg/mL (≈ 4.02 nM).
Turning to `C=C1C=C2C3(O)C1OC(=O)C(C)CCCCCCC(C)CC(C)(O)C1(O)C4OC5(c6ccccc6)OC1C(C1OC1(CO)C3O)C2(O5)C4C` (stereo not drawn) [Compound 1, Trigonolactone B], in series [1], the CC50 came to 16.5 µg/mL (≈ 24100 nM). Moreover, the EC50 in [2] (setting [10]) was 0.00106 µg/mL (≈ 1.55 nM); in series [5], greater than 439 µM; in series [6] it was 0.00225 µg/mL (≈ 3.3 nM). The “EC50 (syncytium formation)” value in series [3] worked out at 0.0033 µg/mL (≈ 4.83 nM); in [4], 0.0026 µg/mL (≈ 3.81 nM).
Take `C=C1C=C2C3(O)C1OC(=O)C(C)CCCCCCC(C)CC(O)(COC(=O)c1ccccc1O)C1(O)C4OC5(c6ccccc6)OC1C(C1OC1(CO)C3O)C2(O5)C4C` (stereo not drawn) [Compound 2, Trigonolactone D]: in [1], the CC50 amounted to 8.49 µg/mL (≈ 10400 nM). In addition, the “selectivity index CC50/EC50” value in [2] (C8166 cells, HIV-1IIIB) came out at 4468.42. Further, the EC50 in [2] (setting [10]) was 0.0019 µg/mL (≈ 2.32 nM); in series [5], 60.2 µM; in [6], 0.00462 µg/mL (≈ 5.64 nM). Also, the “EC50 (syncytium formation)” value in [3] turned out to be 0.00272 µg/mL (≈ 3.32 nM); in series [4] it was 0.00583 µg/mL (≈ 7.12 nM).
`Cc1cn([C@H]2C[C@H](N=[N+]=[N-])[C@@H](CO)O2)c(=O)[nH]c1=O` [AZT, reference compound]: the “cytotoxicity CC50” value in series [8] was determined as 1006.69 µg/mL. The “anti-HIV-1 EC50 (syncytia formation induced by HIV-1IIIB)” value in series [2] (setting [10]) worked out at 0.00508 µg/mL.
Regarding `CC1CCCCCCC(C)C(=O)OC2C(=CCl)C=C3C2(O)C(O)C2(CO)OC2C2C4OC5(c6ccccc6)OC(C(C)C32O5)C4(O)C(C)(O)C1` (stereo not drawn) [Compound 4, Trigocherriolide B], in series [1], the cytotoxic concentration (CC50) came out at 14.9 µg/mL (≈ 20800 nM). The “selectivity index CC50/EC50” value in [2] (C8166 cells, HIV-1IIIB) is 1811.43. The EC50 in series [2] (setting [10]) is 0.00822 µg/mL (≈ 11.5 nM); in series [5] it was 278 µM; in series [6], 0.00873 µg/mL (≈ 12.2 nM). Also, the “EC50 (syncytium formation)” value in [3] came out at 0.00297 µg/mL (≈ 4.14 nM).
Take trigonothyrins F: in [7], the “anti-HIV-1 EC50” value is 0.13 µg/mL.
For Enfuvirtide, the “anti-HIV-1 EC50 (syncytia formation induced by HIV-1IIIB)” value in series [2] (1IIIB) turned out to be 0.09725 µg/mL. Moreover, the “EC50, inhibition of fusion of H9/HIV-1IIIB cells with uninfected C8166 cells” value in [9] came out at 0.00977 µg/mL.
